In publication PMC7588843 (Bioactive Materials, 2020):
Converted amounts (≈) assume the structure as drawn.

Tests used:
[1] = system: P. falciparum D10 (CQ-sensitive) strain; assay: P. falciparum drug susceptibility assay; format: cell-based; conditions: for IC50: Plasmodium falciparum, D10, 72 h, read-out: P. falciparum IC50 D10; for SID10: IC50(NHDF)/IC50(D10)
human erythrocytes [2] = assay: Hemolytic activity in the presence of 10 μM FP; format: cell-based; conditions: for Hemolysis of human erythrocytes in the presence of FP: 50 and 100 μM, 2 h, 37 °C
[3] = system: P. falciparum W2 (CQ-resistant) strain; assay: P. falciparum drug susceptibility assay; format: cell-based; conditions: for SIW2: IC50(NHDF)/IC50(W2); for IC50: Plasmodium falciparum, W2, 72 h, read-out: P. falciparum IC50 W2; for RI (resistance index): ratio of IC50 against W2 and D10 strains
human erythrocytes [4] = assay: Hemolytic activity without FP; format: cell-based; conditions: 50 and 100 μM, 2 h, 37 °C
Cytotoxic activity test = format: cell-based, human; conditions: human, NHDF cells
[5] = In vivo pharmacokinetic evaluation in mice
NHDF cells = assay: Cytotoxic activity test; format: cell-based, human; conditions: 24 and 48 h, MTT, up to twice the IC50 for P. falciparum
[6] = male, CD-1, mouse, plasma, po, 0.02 mg/kg

Compound | IC50 [1] | Hemolysis of human erythrocytes in the presence of FP (human erythrocytes [2]) | SIW2 [3] | IC50 [3] | Hemolysis of human erythrocytes without FP (human erythrocytes [4]) | IC50 (Cytotoxic activity test) | SID10 [1] | RI (resistance index) [3] | other results
CCN(CC)CCCC(C)Nc1ccnc2cc(Cl)ccc12 (stereo not shown) [CQ, chloroquine diphosphate, reference compound] | 0.0184 ± 0.008 µg/mL | drastically increased the percentage of hemolysis | 80.5 | 0.262 ± 0.102 µg/mL |  |  |  |  | 
c1ccc2c(c1)[nH]c1ncccc12 [Compound 1, 9H-1-azacarbazole] | > 5 µg/mL |  |  | > 5 µg/mL |  |  |  |  | 
c1ccc2c(c1)[nH]c1cnccc12 [Compound 2, 9H-2-azacarbazole] | 3.33 ± 0.742 µg/mL (≈ 19.8 µM) | drastically increased the percentage of hemolysis | 10.9 | 3.67 ± 0.708 µg/mL (≈ 21.8 µM) | None of the examined agents caused significant lysis | 40 ± 1.11 µg/mL (≈ 238 µM) | 12.0 | 1.1 | 
c1ccc2c(c1)[nH]c1ccncc12 [Compound 3, 9H-3-azacarbazole] | 1.95 ± 0.263 µg/mL (≈ 11.6 µM) | drastically increased the percentage of hemolysis | 14.4 | 2.22 ± 0.752 µg/mL (≈ 13.2 µM) | None of the examined agents caused significant lysis | 32 ± 1.43 µg/mL (≈ 191 µM) | 16.4 | 1.1 | AUC(0-t) [5, 6]: 1 ng·h/mL; CL/F [5, 6]: 194 mL/min/kg; Cmax [5, 6]: 4.67 ng/mL; MRT [5, 6]: 1.28 h; Vd/F [5, 6]: 19.7 L/kg; k el [5, 6]: 0.000165 s⁻¹; Tmax ([5]; male, CD-1, mouse, plasma, po, 0.02 mg/kg, tmax, mice, i.g., 0.02 mg/kg in 3-NE): ≤ 5 min; time plasma concentrations detectable after administration ([5]; mice, i.g., 0.02 mg/kg in 3-NE): at least 8 h; t0.5 ([5]; mice, i.g., 0.02 mg/kg in 3-NE, plasma, 0.02 mg/kg): 70.33 min; NHDF cell viability (NHDF cells): negligible effect on cell viability
Cc1cccc2c1[nH]c1ncccc12 [Compound 4, 8-methyl-9H-1-azacarbazole] | > 5 µg/mL |  |  | > 5 µg/mL |  |  |  |  | 
Cc1ccc2[nH]c3ncccc3c2c1 [Compound 5, 6-methyl-9H-1-azacarbazole] | > 5 µg/mL |  |  | > 5 µg/mL |  |  |  |  | 
Cc1ccn(C)c2nc3ccccc3c1-2 [Compound 6, 1,4-dimethyl-1H-1-azacarbazole] | 4.42 ± 0.458 µg/mL (≈ 22.5 µM) | drastically increased the percentage of hemolysis | 2.8 | 4.18 ± 1.04 µg/mL (≈ 21.3 µM) | None of the examined agents caused significant lysis | 11.8 ± 0.144 µg/mL (≈ 59.9 µM) | 2.6 | 0.9 | Hemolysis with FP compared with CQ-FP, 50 μM (human erythrocytes [2]): less hemolytic than CQ-FP complexes
c1cnc2[nH]c3ncccc3c2c1 [Compound 7, 9H-1,8-diazacarbazole] | > 5 µg/mL |  |  | > 5 µg/mL |  |  |  |  | 
c1cc2c(cn1)[nH]c1cnccc12 [Compound 8, 9H-2,7-diazacarbazole] | > 5 µg/mL |  |  | > 5 µg/mL |  |  |  |  | 
c1cnc2c(c1)[nH]c1ncccc12 [Compound 9, 9H-1,5-diazacarbazole] | > 5 µg/mL |  |  | > 5 µg/mL |  |  |  |  | 
c1cnc2c(c1)[nH]c1cccnc12 [Compound 10, 9H-4,5-diazacarbazole] | > 5 µg/mL |  |  | > 5 µg/mL |  |  |  |  | 
Cn1cccc2c3cccnc3nc1-2 [Compound 11, 1-methyl-1H-1,8-diazacarbazole] | > 5 µg/mL |  |  | > 5 µg/mL |  |  |  |  | 
Cn1cccc2nc3cccnc3c1-2 [Compound 12, 4-methyl-4H-4,5-diazacarbazole] | 3.16 ± 0.621 µg/mL (≈ 17.3 µM) |  | 10.7 | 3.99 ± 0.269 µg/mL (≈ 21.8 µM) | None of the examined agents caused significant lysis | 42.8 ± 3.31 µg/mL (≈ 234 µM) | 13.5 | 1.3 | Hemolysis with FP compared with CQ-FP, 50 μM (human erythrocytes [2]): less hemolytic than CQ-FP complexes; Hemolysis with FP compared with CQ-FP, 100 μM (human erythrocytes [2]; 100 μM): less hemolytic than CQ-FP complexes
